Here are results for one compound from patent publication US6300327A, “Compositions and methods for potentiation of neurotrophin activity” (The University of Southern California, priority 1997, dated 2001).

Assay [1] has as its system protein kinase activity of the platelet-derived growth factor. To be noted: cell-free preparations; cited from earlier work.
The test system of a further assay is trkB. As to the kind of experiment: Cell-free tyrosine phosphorylation of recombinant human trkB expressed in Sf9 insect cells. Type of assay: biochemical. Conditions: 10 μM K-252b. How it is done: Human trk and trkB were expressed in Sf9 insect cells transfected using a baculovirus system. The trk proteins were immunoprecipitated as described above and the precipitates were incubated with 20 μCi [gamma-^32 P]ATP, 10 mM MnCl2, 20 mM Tris, pH 7.4, for 5 min at 25° C. in the presence of increasing amounts of K-252b or control solution. Phosphorylated proteins were analyzed as described for FIG. 4B. The tyrosine kinase activity of the trk and trkB proteins was activated in the absence of ligand, a common observation for receptor tyrosine kinase produced in the baculovirus system. The trk and trkB proteins were 25% pure as assayed by SDS-PAGE.
K-252b interacts directly with the trk and trkB protein. Human trk and trkB were expressed in Sf9 insect cells transfected using a baculovirus system. trk proteins were immunoprecipitated and the precipitates were incubated with [gamma^32 P]ATP in the presence of increasing amounts of K-252b or control solution.

The test system of the next assay is neurotrophin activity. Description: Neurotrophin potentiation in vitro (overall statements). Type of assay: cell-based.
The test system of assay [2] is midbrain dopaminergic neurons (cultures of ventral mesencephalon). Description: Dopamine uptake in primary cultures of fetal rat ventral mesencephalon. Type of assay: cell-based. To be noted: for activity at 5 µM: Rattus norvegicus, Neuron; for Dopamine uptake, Mean ± SEM: n=4. How it is done:
(§1) Primary cultures of fetal rat brain septal and mesencephalic cells were prepared in a heretofore known manner [Knusel et al., supra]. Briefly, defined areas were dissected from fetal rat brains (Wistar, E15-16, Charles River, Mass.). The septal area contained the cholinergic neurons from septum, diagonal band of Broca and nucleus basalis. The ventral mesencephalon containing the dopaminergic neurons of the substantia nigra and the ventral tegmental area was dissected and dissociated mechanically. The cells were plated in 16 mm multiwell plates precoated with polyethyleneimine (1 mg/ml, 37° C., overnight), containing 0.5 ml modified L-15 medium supplemented with 5% heat inactivated horse serum and 0.5% heat inactivated fetal calf serum. Modified L-15 was prepared [Knusel et al., "Selective and Nonselective Stimulation of Central Cholinergic and dopaminergic Development in vitro by Nerve Growth Factor, Basic Fibroblast Growth Factor, Epidermal Growth Factor, Insulin and the Insulin-like Growth Factors I and II," J. Neurosci. 10:558-570 (1990)] by adding various amino acids, vitamins, antibiotics, glucose and NaHCO3 to Leibovitz's L-15 medium (Gibco, Grand Island, N.Y.). Plating densities were 4×10^5 cells/cm^2 for basal forebrain cultures and 3×10^5 cells/cm^2 for mesencephalic cultures. Of these cells, 0.5 to 1% were cholinergic or dopaminergic, respectively. Growth factors were typically added on the second day of culture and the cells were grown for 5 or more days. For ChAT assays tissue was homogenized in 250 μl of 50 mM Tris-HCl buffer, pH 6.0 with 0.3% Triton X-100. [1-^14 C]acetylcoenzyme A (NEN) concentration was 20 μM and specific activity 4.09 Ci/mol. To measure dopamine uptake, cultures were preincubated for 5 min at 37° C. with 250 μl incubation solution (5 mM glucose, 1 mM ascorbic acid in PBS) containing 1 mM pargyline. [^3 H]dopamine (37 Ci/mmol) was then added to give a final concentration of 50 nM and the cultures were incubated for another 15 minutes. Blanks were obtained by incubating cells at 0° C.
In Table 1, dopamine uptake is given as fmol/min/culture dish. Cultures were grown in 24-well plates for 7 days in L-15 medium with 5% horse and 0.5% fetal bovine serum and treated with growth factors and K-252b from the second day of culture. rhBDNF, 200 ng/ml; des-IGF-1, 1 μg/ml; n=4; *different from respective control group, p <0.01 (Student's t-test). The apparent difference between control cultures grown in presence and absence of K-252b was statistically not significant. The experiment shown is a representative case of a total of 5 independent experiments.

For assay [3], the system named is forebrain cholinergic neurons (cultures of rat basal forebrain). As to the kind of experiment: ChAT activity in primary cultures of fetal rat basal forebrain (septal) cholinergic neurons treated with neurotrophins and K-252 compounds. Type of assay: cell-based. How it is done:
Recombinant human NGF (rhNGF), BDNF (rhBDNF), and NT-3 (rhNT-3) and K-252b were added to primary cultures of fetal rat brain neurons containing either forebrain cholinergic or midbrain dopaminergic neurons. A broad range of concentrations of K-252b were tested in presence of 50 ng/ml rhNGF, 200 ng/ml rhBDNF and 1 μg/ml rhNT-3, growth factor concentrations producing maximal trophic actions on cholinergic neurons. The trophic action was monitored by measuring the activity of ChAT, a parameter reflecting both survival and transmitter-specific differentiation of cholinergic cells.
as §1
FIG. 1 illustrates levels of ChAT activity in cultures of rat basal forebrain treated with rhNGF, rhBDNF, or rhNT- and K-252b. Growth factors were added on the second day of culture and the cells were grown for 5 days. Growth factor concentrations producing maximal elevations of ChAT activity were used. In FIG. 1, .largecircle. represents the control; .quadrature., 50 ng/ml rhNGF; Δ, 200 ng/ml rhBDNF; and .tangle-soliddn., 1 μg/ml rhNT-3. The ChAT stimulation mediated by all three neurotrophins was inhibited by K-252b at concentrations above 200 nM. […] N=4 per data point. Error bars represent SEMs and were omitted where they would have appeared smaller than the symbol.
These compounds were accordingly tested for possible NT-3 potentiation at lower concentrations than necessary for NGF inhibition. Culture conditions were as described in Example 1. Cultures were untreated (controls) or treated with 200 ng/ml NT-3 and increasing concentrations of the inhibitors. The findings are shown in FIG. 6, in which "Stau", "K2a", "K2b", "K57", "K58", "K59" represent, respectively, staurosporine, K-252a, K-252b, KT5720, KT5823, and KT5296. […] Staurosporine and KT5296 were ineffective.

“Also recorded” adds a separate entry of the source. Like-named read-outs stand apart in the source and are kept apart here.

As for `CC12OC(CC1(O)C(=O)O)n1c3ccccc3c3c4c(c5c6ccccc6n2c5c31)CNC4=O` (stereo not drawn) [K-252b], the “inhibition of protein kinase activity of the platelet-derived growth factor” value in assay [1] is on record as “inhibits”. The “effect on trkB tyrosine phosphorylation, cell-free system” value in the assay on trkB is “completely prevented”. The “effect on actions of NT-3” value in the assay on neurotrophin activity (nM concentrations) is “selectively potentiates”. Further, in the assay on neurotrophin activity (μM concentrations), the “effect on actions of all neurotrophins” value is recorded as “inhibits the actions of all neurotrophins”. In assay [2] (K-252b 5 μM (Table 1)), the “effect on increase in dopamine uptake mediated by BDNF” value is given as “prevented the increase in dopamine uptake; also recorded: inhibits the stimulatory action”. For the same compound, the activity at 5 µM in assay [2] (read-out: Dopamine uptake, % of Control, With K-252b (5 μM) + des-IGF-1 1 μg/ml) was determined as 201%; in assay [2] (read-out: Dopamine uptake, % of Control, With K-252b (5 μM) + rhBDNF 200 ng/ml), 119%. The “Dopamine uptake, Mean ± SEM” value in assay [2] (With K-252b (5 μM) + des-IGF-1 1 μg/ml) was 22.9 ± 1.0 fmol/min/culture dish; in assay [2] (With K-252b (5 μM) + rhBDNF 200 ng/ml), 13.6 ± 0.7 fmol/min/culture dish; in assay [2] (With K-252b (5 μM), no growth factor (Control)), 11.4 ± 0.2 fmol/min/culture dish. In addition, the “effect on stimulatory action of bFGF and insulin on dopamine uptake” value in assay [2] (bFGF and insulin) is recorded as “does not inhibit”. Further, in assay [2] (des-IGF-1 1 μg/ml), the “effect on stimulatory action of des-IGF-1 on dopamine uptake” value is “not to inhibit”. Besides, in assay [2] (low concentrations of K-252b), the “effect on action of BDNF on dopaminergic neurons” value is “did not potentiate”. For the same compound, the “effect on ChAT actions of NGF or BDNF” value in assay [3] (100 pM to 30 nM K-252b) was “without affecting”. In assay [3] (50 nM K-252b), the “effect on potency and maximal efficacy of NT-3 (ChAT)” value was “increased both potency and maximal efficacy”. Also, the “effect on NT-3 stimulation of ChAT activity” value in assay [3] (10-100 nM K-252b with NT-3) was “same stimulatory effect as NGF”. For the same compound, the IC100 in assay [3] (Rattus norvegicus, Neuron, read-out: minimal concentration required to completely abolish the ChAT responses) is ~2 µM. Further, the “effect on stimulatory effects of NGF or BDNF on cholinergic neurons” value in assay [3] (low concentrations of K-252b) is “not potentiated”. Further, the “effect on ChAT increases mediated by bFGF, insulin and insulin-like growth factor-1” value in assay [3] (non-neurotrophin growth factors) is “not affected”. Further, the “effect on trophic action of NGF on cholinergic neurons (ChAT)” value in assay [3] (relatively high dosages) was “completely and selectively prevent”. For the same compound, the “inhibition of action of central cholinergic neurons” value in assay [3] (structural relatives, Example 6) is recorded as “inhibition”.
